In patent US8022072B2, “Azolylmethylidenehydrazine derivative and use thereof” (Kaken Pharmaceutical Co., Ltd., priority 2007, dated 2011):

Columns and labels:
[1] = tested on: OVA-induced dermatitis; assay: Ovalbumin (OVA)-induced dermatitis model, ear edema; assay type: in vivo, male ICR mouse; set-up: key: ratio of compound's ear edema inhibition rate to FK506's (FK506 = 1.0); conditions: test compound 1 w/v % (FK506 0.1 w/v %), 20 μL applied to auricle, 24 hours after induction
Protocol: (§1) The test compound was adjusted to 1 w/v % when in use with a solvent (acetone:olive oil=1:1, v/v)) and put to use. FK506 (control substance) was adjusted to 0.1 w/v % and used.
Male ICR mouse was sensitized by the administration of 0.2 mL of OVA-hydroxide aluminum gel suspension to the abdominal cavity. After 14 days from the sensitization, the thickness of the right auricle was measured with a micrometer (pre-value). After the measurement, 20 μL of 0.5 μg/mL OVA challenge liquid (solvent was physiological saline) was subcutaneously administered to the inside of the auricle to induce ear edema. About 5 minutes after the administration of the challenge liquid, 20 μL of the test compound was applied to the outside of the auricle. After 24 hours from the induction of ear edema, the thickness of the right auricle was measured by a method similar to the pre-value (post-value). The difference between the post-value and the pre-value of ear edema by each test compound was determined, based on which the inhibition rate was calculated. The activity of each test compound was calculated with the ear edema inhibition rate of FK506 as 1.0 (ear edema inhibition rate of each test compound/ear edema inhibition rate of FK506).

[2] = tested on: TNCB-induced dermatitis; assay: 2,4,6-Trinitrochlorobenzene (TNCB)-induced dermatitis model, ear edema; assay type: in vivo, male BALB/c mouse; conditions: test compound 1 w/v % (FK506 0.1 w/v %), 20 μL applied to auricle, 24 hours after induction
Protocol: as §1
The fur on the abdomen of male BALB/c mouse was shaved with a hair clipper, and 100 μL of 7 w/v % TNCB sensitizing liquid (solvent was acetone:olive oil=4:1, v/v) was applied. Six days after the sensitization, the thickness of the right auricle was measured with a micrometer (pre-value). After the measurement, 10 μL of 1 w/v % TNCB challenge liquid (solvent was acetone:olive oil=1:9, v/v) was applied to the inside of the right auricle to induce ear edema. About 5 minutes after the application of the challenge liquid, 20 μL of the test compound was applied to the outside of the auricle.
After 24 hours from the induction of ear edema, the thickness of the right auricle was measured by a method similar to the pre-value (post-value). The difference between the post-value and the pre-value of ear edema by each test compound was determined, based on which the inhibition rate was calculated. The activity of each test compound was calculated with the ear edema inhibition rate of FK506 as 1.0 (ear edema inhibition rate of each test compound/ear edema inhibition rate of FK506).

Row | SMILES | OVA-induced dermatitis, with ear edema inhibition rate of FK506 as 1.0 [1] | TNCB-induced dermatitis, with ear edema inhibition rate of FK506 as 1.0 [2]
1 | CCN(C)N=C(c1ccccc1OCc1ccc(F)cc1)n1ccnc1 [Compound No. 113, N-ethyl-N′-[1-[2-(4-fluorobenzyloxy)phenyl]-1-imidazol-1-ylmethylidene]-N-methylhydrazine] | 1.7 | 0.6
2 | CCN(C)N=C(c1ccccc1OCCCOc1ccccc1)n1ccnc1 [Compound No. 115, N-ethyl-N′-[1-imidazol-1-yl-1-[2-(3-phenoxypropoxy)phenyl]methylidene]-N-methylhydrazine] | 1.4 | 0.7
3 | CN(C)N=C(c1ccccc1SCCc1ccccc1)n1ccnc1 [Compound No. 84, N′-[1-imidazol-1-yl-1-(2-phenethylthiophenyl)methylidene]-N,N-dimethylhydrazine] | 1.4 | 0.9
4 | CCOc1ccccc1C(=NN1CCCCCC1)n1ccnc1 [Compound No. 197, [1-(2-ethoxyphenyl)-1-imidazol-1-ylmethylidene]homopiperidin-1-ylamine] | 1.1 | 0.7
5 | CN(C)N=C(c1ccccc1OCc1ccc(Cl)cc1)n1ccnc1 [Compound No. 38, N′-[1-[2-(4-chlorobenzyloxy)phenyl]-1-imidazol-1-ylmethylidene]-N,N-dimethylhydrazine] | 1.1 | 0.7
6 | CCCCOc1ccccc1C(=NN1CCCCCC1)n1ccnc1 [Compound No. 202, [1-(2-butoxyphenyl)-1-imidazol-1-ylmethylidene]homopiperidin-1-ylamine] | 1.0 | 0.7
7 | CN(C)N=C(c1ccccc1OCCc1ccccc1)n1ccnc1 [Compound No. 56, N′-[1-imidazol-1-yl-1-(2-phenethoxyphenyl)methylidene]-N,N-dimethylhydrazine] | 1.2 | 0.7
8 | c1ccc(OCCOc2ccccc2C(=NN2CCCCCC2)n2ccnc2)cc1 [Compound No. 215, homopiperidin-1-yl-[1-imidazol-1-yl-1-[2-(2-phenoxyethoxy)phenyl]methylidene]amine] | 1.2 | 0.8
9 | CN(C)N=C(c1cccn1CCCOc1ccccc1)n1ccnc1 [Compound No. 108, N′-[1-imidazol-1-yl-1-[1-(3-phenoxypropyl)pyrrol-2-yl]methylidene]-N,N-dimethylhydrazine] | 1.4 | 0.9
10 | CCN(CC)N=C(c1ccccc1OCCOc1ccccc1)n1ccnc1 [Compound No. 119, N,N-diethyl-N′-[1-imidazol-1-yl-1-[2-(2-phenoxyethoxy)phenyl]methylidene]hydrazine] | 1.1 | 0.9
11 | CN(C)N=C(c1ccccc1OCCc1ccc(F)cc1)n1ccnc1 [Compound No. 57, N′-[1-[2-[2-(4-fluorophenyl)ethoxy]phenyl]-1-imidazol-1-ylmethylidene]-N,N-dimethylhydrazine] | 1.8 | 0.8
12 | c1ccc(OCCCOc2ccccc2C(=NN2CCCCCC2)n2ccnc2)cc1 [Compound No. 216, homopiperidin-1-yl-[1-imidazol-1-yl-1-[2-(3-phenoxypropoxy)phenyl]methylidene]amine] | 1.5 | 0.5
13 | CN(C)N=C(c1ccccc1OCc1cccc(Cl)c1)n1ccnc1 [Compound No. 40, N′-[1-[2-(3-chlorobenzyloxy)phenyl]-1-imidazol-1-ylmethylidene]-N,N-dimethylhydrazine] | 1.0 | 0.7
14 | CCc1ccc(COc2ccccc2C(=NN(C)C)n2ccnc2)cc1 [Compound No. 48, N′-[1-[2-(4-ethylbenzyloxy)phenyl]-1-imidazol-1-ylmethylidene]-N,N-dimethylhydrazine] | 1.0 | 0.5
15 | CCCCCCc1ccccc1C(=NN(C)C)n1ccnc1 [Compound No. 5, N′-[1-(2-hexylphenyl)-1-imidazol-1-ylmethylidene]-N,N-dimethylhydrazine] | 1.2 | 0.6
16 | CCN(C)N=C(c1ccccc1OCCCCOc1ccccc1)n1ccnc1 [Compound No. 116, N-ethyl-N′-[1-imidazol-1-yl-1-[2-(4-phenoxybutoxy)phenyl]methylidene]-N-methylhydrazine] | 1.1 | 0.7
17 | CCCCCOc1ccccc1C(=NN1CCCCCC1)n1ccnc1 [Compound No. 203, homopiperidin-1-yl-[1-imidazol-1-yl-1-(2-pentyloxyphenyl)methylidene]amine] | 1.0 | 0.9
18 | C=CC[C@@H]1/C=C(\C)C[C@H](C)C[C@H](OC)[C@H]2O[C@@](O)(C(=O)C(=O)N3CCCC[C@H]3C(=O)O[C@H](/C(C)=C/[C@@H]3CC[C@@H](O)[C@H](OC)C3)[C@H](C)[C@@H](O)CC1=O)[C@H](C)C[C@@H]2OC [FK506, tacrolimus, reference compound] | 1.0 | 1.0
19 | CN(C)N=C(c1ccccc1OCc1ccc(F)cc1)n1ccnc1 [Compound No. 35, N′-[1-[2-(4-fluorobenzyloxy)phenyl]-1-imidazol-1-ylmethylidene]-N,N-dimethylhydrazine] | 0.9 | 0.6
20 | COc1ccc(CCOc2ccccc2C(=NN(C)C)n2ccnc2)cc1 [Compound No. 58, N′-[1-imidazol-1-yl-1-[2-[2-(4-methoxyphenyl)ethoxy]phenyl]methylidene]-N,N-dimethylhydrazine] | 1.0 | 0.9
21 | c1ccc(OCCOc2ccccc2C(=NN2CCCCC2)n2ccnc2)cc1 [Compound No. 175, [1-imidazol-1-yl-1-[2-(2-phenoxyethoxy)phenyl]methylidene]piperidin-1-ylamine] | 1.4 | 0.6
22 | CCCCCOc1ccccc1C(=NN(C)C)n1ccnc1 [Compound No. 24, N′-[1-imidazol-1-yl-1-(2-pentyloxyphenyl)methylidene]-N,N-dimethylhydrazine] | 0.9 | 0.5
23 | CN(C)N=C(c1ccccc1OCC1COc2ccccc2O1)n1ccnc1 (stereo not drawn) [Compound No. 73, N′-[1-[2-(2,3-dihydrobenzo[1,4]dioxin-2-ylmethoxy)phenyl]-1-imidazol-1-ylmethylidene]-N,N-dimethylhydrazine] | 1.1 | 0.7
24 | CCSc1ccccc1C(=NN1CCCCCC1)n1ccnc1 [Compound No. 220, [1-(2-ethylthiophenyl)-1-imidazol-1-ylmethylidene]homopiperidin-1-ylamine] | 1.1 | 0.5
